Measured values from patent publication EP4810052A2, “HCRHR2 SELECTIVE POLYPEPTIDES” (Gubra A/S, priority 2023, dated 2026).
Where two headings read alike, the source gives them in different places. Starred links: 1 amine or outer side, 2 acyl side, 3 side chain; linkers in the order of their positions; H or OH if unused. Non-standard residues stand in square brackets, D forms with d. Residues, ends and D or L forms follow the SMILES beside them. Groups on a side chain read outwards from the residue. *: point of attachment. C20 diacid = O=C(O)CCCCCCCCCCCCCCCCCCC(=O)*; γGlu = O=C(O)[C@H](CCC(=O)[*:2])N[*:1]; Nle = CCCC[C@H](N)C(=O)O; AEEA = NCCOCCOCC(=O)O

Tests used:
[1] = Chemical stability of purified peptides (RP-UHPLC main peak purity loss); type: physicochemical
How it was run: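 Peptides at about 1.0 mg/ml in 50 mM phosphate buffer pH 7.5, or pH-adjusted for the pH series, were incubated at 40 °C for 14 and 28 days. Main-peak purity was taken as main-peak area over total area by RP-UHPLC (UV 215 nm, C8, 50 °C). Purity loss was calculated versus T0.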

[2] = Thioflavin T fibril formation assay of purified peptides; type: physicochemical; parameters: key: Amyloid fibril formation detected by an increase in ThT fluorescence was denoted with "Yes"; samples without increasing ThT fluorescence hence not forming amyloid fibrils were denoted "No"
How it was run: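 Compounds at 200 µM in 50 mM phosphate buffer at the stated pH values, or at 200 µM in semaglutide drug product adjusted to pH 7.4, with 4 µM ThT final. Fibrillation followed as ThT fluorescence (ex 450/em 480 nm) over 96 h at 40°C, with 5 min shaking at 700 rpm alternating with 5 min rest; triplicates.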

[3] = pH 7.5
hCRHR2 = target: T1, hCRHR2 (Homo sapiens, UniProt Q13324); assay: HTRF cAMP assay, determination of hCRHR2 potency (peptide libraries 5 conc., purified peptides 11 conc.); type: cell-based
T1 sequence (Q13324 1-411): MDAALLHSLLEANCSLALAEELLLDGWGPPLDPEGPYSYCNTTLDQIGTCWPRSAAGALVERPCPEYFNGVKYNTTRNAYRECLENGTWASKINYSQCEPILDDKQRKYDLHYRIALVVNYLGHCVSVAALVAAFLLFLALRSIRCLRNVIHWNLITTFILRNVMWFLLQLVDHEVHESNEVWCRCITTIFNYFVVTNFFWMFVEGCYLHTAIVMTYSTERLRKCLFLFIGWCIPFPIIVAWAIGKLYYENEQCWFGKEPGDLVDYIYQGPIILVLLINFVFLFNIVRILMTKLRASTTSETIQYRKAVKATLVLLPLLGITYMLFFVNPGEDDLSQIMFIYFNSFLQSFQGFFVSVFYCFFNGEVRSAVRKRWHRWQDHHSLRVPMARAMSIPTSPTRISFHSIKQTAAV
How it was run: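 Agonist peptides are added to suspended, freshly thawed CHO-K1 cells that stably carry the human receptor. Intracellular cAMP competes with d2-cAMP for a cryptate-tagged antibody, lowering the FRET signal. A variable-slope sigmoid curve is fitted to obtain EC50.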

hCRHR1 = target: T2, hCRHR1 (Homo sapiens, UniProt P34998); assay: HTRF cAMP assay, determination of hCRHR1 potency (peptide libraries 5 conc., purified peptides 11 conc.); type: cell-based
T2 sequence (P34998 24-415): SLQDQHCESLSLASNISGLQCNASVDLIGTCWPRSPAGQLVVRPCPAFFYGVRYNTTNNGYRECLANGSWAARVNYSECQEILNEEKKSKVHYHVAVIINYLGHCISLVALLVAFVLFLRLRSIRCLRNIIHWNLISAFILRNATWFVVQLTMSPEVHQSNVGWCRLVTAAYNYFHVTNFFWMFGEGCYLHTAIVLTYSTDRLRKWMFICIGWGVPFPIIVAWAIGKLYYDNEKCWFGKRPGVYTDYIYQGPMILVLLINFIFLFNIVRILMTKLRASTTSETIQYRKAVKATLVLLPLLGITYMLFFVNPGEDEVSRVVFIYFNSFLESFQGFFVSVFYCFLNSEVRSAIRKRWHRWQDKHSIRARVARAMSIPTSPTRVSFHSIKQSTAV
How it was run: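 CHO-K1 cells stably expressing human CRHR1, thawed from frozen stocks just before use, were stimulated in suspension with agonist peptides. cAMP was measured by HTRF competitive immunoassay (cryptate anti-cAMP antibody vs d2-cAMP).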

[4] = Table 5, purified peptides, read-out: hCRHR2 EC50
[5] = Table 5, purified peptides, read-out: hCRHR1 EC50

Row | Chemical stability at pH 7.5 after 14 days at 40°C (% degradation) ([1]; pH 7.5, 14 days, 40°C) | Chemical stability at pH 7.5 after 28 days at 40°C (% degradation) ([1]; pH 7.5, 28 days, 40°C) | Fibrillation (pH 7.5) ([2]; pH 7.5) | Solubility pH 7.5, target conc. =10 mg/mL (measured mg/mL) [3] | Selectivity ratio (hCRHR1/ hCRHR2) (hCRHR2; Table 5) | EC50 (hCRHR2; [4]) | EC50 (hCRHR1; [5]) | EC50 (hCRHR2; library peptides, matched molecular pairs L vs Nle in position X^38, read-out: Potency hCRHR2 pEC50 (converted)) | EC50 (hCRHR1; library peptides, matched molecular pairs L vs Nle in position X^38, read-out: Potency hCRHR1 pEC50 (converted)) | Chemical stability at pH 7.5 after 14 days at 40°C (% degradation) ([1]; pH 7.5, 40°C, 14 days, first value of cell) | Chemical stability at pH 7.5 after 28 days at 40°C (% degradation) ([1]; pH 7.5, 40°C, 28 days, second value of cell) | Fibrillation (pH 7.5) ([2]; pH 7.5, ThT assay) | Selectivity ratio (hCRHR1/ hCRHR2) (hCRHR2; hCRHR1-EC50/hCRHR2-EC50) | EC50 (hCRHR2; purified peptides, CHO-K1 cells stably expressing hCRHR2, cAMP HTRF, read-out: hCRHR2 EC50) | EC50 (hCRHR1; purified peptides, CHO-K1 cells stably expressing hCRHR1, cAMP HTRF, read-out: hCRHR1 EC50) | Structure (SMILES)
1 | -1.9% | -2.2% | No | 11 mg/mL | >5556 | 0.9 nM | > 5000 nM |  |  |  |  |  |  |  |  | CCCC[C@H](NC(=O)[C@@H](NC(=O)[C@H](CCC(=O)O)NC(=O)[C@H](C)NC(=O)[C@H](CC(N)=O)NC(=O)[C@H](CCC(=O)O)NC(=O)[C@H](CCCCNC(=O)COCCOCCNC(=O)COCCOCCNC(=O)CC[C@H](NC(=O)CC[C@H](NC(=O)CCCCCCCCCCCCCCCCCCC(=O)O)C(=O)O)C(=O)O)NC(=O)[C@H](C)NC(=O)[C@H](CCC(N)=O)NC(=O)[C@H](CCC(=O)O)NC(=O)[C@H](CCCNC(=N)N)NC(=O)[C@H](C)NC(=O)[C@H](C)NC(=O)[C@H](CCCNC(=N)N)NC(=O)[C@H](C)NC(=O)[C@H](CCCNC(=N)N)NC(=O)[C@H](C)NC(=O)[C@H](CCC(N)=O)NC(=O)[C@H](CO)NC(=O)[C@H](CC(C)C)NC(=O)[C@H](CC(C)C)NC(=O)[C@@H](NC(=O)[C@H](CCC(N)=O)NC(=O)[C@H](CC(C)C)NC(=O)[C@H](CC(C)C)NC(=O)CNC(=O)[C@@H](NC(=O)[C@@H]1CCCN1C(=O)[C@@H](NC(=O)[C@H](CC(=O)O)NC(=O)[C@H](CC(C)C)NC(=O)[C@H](CO)NC(=O)[C@H](CC(C)C)NC(=O)[C@@H](NC(=O)[C@@H](N)[C@@H](C)CC)C(C)C)C(C)C)[C@@H](C)CC)[C@@H](C)CC)[C@@H](C)CC)C(=O)N[C@@H](C)C(=O)N[C@@H](CCC(=O)O)C(=O)N[C@H](C(N)=O)C(C)C [compound 239] (H-IVLSLDVPIGLLQILLSQARARAAREQAK([AEEA-AEEA-γGlu-γGlu-C20 diacid])ENAEI[Nle]AEV-NH2)
2 | -3.2% | -10% | No | 9.5 mg/mL | >9091 | 0.55 nM | > 5000 nM | 0.316 nM | 7940 nM |  |  |  |  |  |  | CCCC[C@H](NC(=O)[C@@H](NC(=O)[C@H](CCC(=O)O)NC(=O)[C@H](C)NC(=O)[C@H](CC(N)=O)NC(=O)[C@@H](NC(=O)[C@H](CCCCNC(=O)COCCOCCNC(=O)COCCOCCNC(=O)CC[C@H](NC(=O)CC[C@H](NC(=O)CCCCCCCCCCCCCCCCCCC(=O)O)C(=O)O)C(=O)O)NC(=O)[C@H](C)NC(=O)[C@H](CCC(N)=O)NC(=O)[C@H](CCC(=O)O)NC(=O)[C@H](CCCNC(=N)N)NC(=O)[C@H](C)NC(=O)[C@H](C)NC(=O)[C@H](CCCNC(=N)N)NC(=O)[C@H](C)NC(=O)[C@H](CCCNC(=N)N)NC(=O)[C@H](C)NC(=O)[C@H](CCC(N)=O)NC(=O)[C@H](CO)NC(=O)[C@H](CC(C)C)NC(=O)[C@H](CC(C)C)NC(=O)[C@@H](NC(=O)[C@H](CCC(N)=O)NC(=O)[C@H](CC(C)C)NC(=O)[C@H](CC(C)C)NC(=O)CNC(=O)[C@@H](NC(=O)[C@@H]1CCCN1C(=O)[C@@H](NC(=O)[C@H](CC(=O)O)NC(=O)[C@H](CC(C)C)NC(=O)[C@H](CO)NC(=O)[C@H](CC(C)C)NC(=O)[C@@H](NC(=O)[C@@H](N)[C@@H](C)CC)C(C)C)C(C)C)[C@@H](C)CC)[C@@H](C)CC)[C@@H](C)O)[C@@H](C)CC)C(=O)N[C@@H](C)C(=O)N[C@@H](CCC(=O)O)C(=O)N[C@H](C(N)=O)C(C)C [compound 83] (H-IVLSLDVPIGLLQILLSQARARAAREQAK([AEEA-AEEA-γGlu-γGlu-C20 diacid])TNAEI[Nle]AEV-NH2)
3 |  |  |  | 8.9 mg/mL |  |  |  |  |  | -0.3% | -1.6% | No | >926 | 5.4 nM | > 5000 nM | CC[C@H](C)[C@H](N)C(=O)N[C@H](C(=O)N[C@@H](CC(C)C)C(=O)N[C@@H](CO)C(=O)N[C@@H](CC(C)C)C(=O)N[C@@H](CC(=O)O)C(=O)N[C@H](C(=O)N1CCC[C@H]1C(=O)N[C@H](C(=O)NCC(=O)N[C@@H](CC(C)C)C(=O)N[C@@H](CC(C)C)C(=O)N[C@@H](CCC(N)=O)C(=O)N[C@H](C(=O)N[C@@H](CC(C)C)C(=O)N[C@@H](CC(C)C)C(=O)N[C@@H](CCC(=O)O)C(=O)N[C@@H](CCC(N)=O)C(=O)N[C@@H](C)C(=O)N[C@@H](CCCNC(=N)N)C(=O)N[C@@H](C)C(=O)N[C@@H](CCCNC(=N)N)C(=O)N[C@@H](C)C(=O)N[C@@H](C)C(=O)N[C@@H](CCCNC(=N)N)C(=O)N[C@@H](CCC(=O)O)C(=O)N[C@@H](CCC(N)=O)C(=O)N[C@@H](C)C(=O)N[C@@H](CCCCNC(=O)COCCOCCNC(=O)COCCOCCNC(=O)CC[C@H](NC(=O)CC[C@H](NC(=O)CCCCCCCCCCCCCCCCCCC(=O)O)C(=O)O)C(=O)O)C(=O)N[C@H](C(=O)N[C@@H](CC(N)=O)C(=O)N[C@H](C(=O)N[C@@H](CCC(=O)O)C(=O)N[C@H](C(=O)N[C@@H](CC(C)C)C(=O)N[C@@H](C)C(=O)N[C@@H](CCC(=O)O)C(=O)N[C@H](C(N)=O)C(C)C)[C@@H](C)CC)[C@@H](C)CC)[C@@H](C)O)[C@@H](C)CC)[C@@H](C)CC)C(C)C)C(C)C [SEQ ID NO: 13] (H-IVLSLDVPIGLLQILLEQARARAAREQAK([AEEA-AEEA-γGlu-γGlu-C20 diacid])TNIEILAEV-NH2)
